{
  "source": "patent US20240425491A1",
  "about": "“HETEROARYL COMPOUNDS USEFUL IN THE TREATMENT OF COGNITIVE DISORDERS” (University College Cardiff Consultants Limited, priority 2021, published 2024)",
  "key": {"[1]": {"molecular_target": "T1, rat brain α5-GABAARs (Rattus norvegicus, UniProt P18508+P19969)", "T1 construct": "from tissue; host or cells: forebrain of male Sprague-Dawley rats, dosed in vivo", "T1 sequence (P19969 32-464 limits assumed)": "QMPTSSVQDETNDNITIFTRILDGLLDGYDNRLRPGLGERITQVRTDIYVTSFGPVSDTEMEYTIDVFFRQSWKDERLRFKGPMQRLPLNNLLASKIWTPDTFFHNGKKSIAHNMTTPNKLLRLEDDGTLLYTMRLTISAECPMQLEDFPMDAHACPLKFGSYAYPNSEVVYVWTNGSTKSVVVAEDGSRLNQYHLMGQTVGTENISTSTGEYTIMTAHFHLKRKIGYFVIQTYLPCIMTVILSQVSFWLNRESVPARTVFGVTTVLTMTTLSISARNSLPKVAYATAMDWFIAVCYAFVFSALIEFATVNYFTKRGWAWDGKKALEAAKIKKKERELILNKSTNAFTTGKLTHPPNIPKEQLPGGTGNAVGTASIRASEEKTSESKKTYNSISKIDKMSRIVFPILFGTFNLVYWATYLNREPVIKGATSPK", "T1 sequence (P18508 39-466)": "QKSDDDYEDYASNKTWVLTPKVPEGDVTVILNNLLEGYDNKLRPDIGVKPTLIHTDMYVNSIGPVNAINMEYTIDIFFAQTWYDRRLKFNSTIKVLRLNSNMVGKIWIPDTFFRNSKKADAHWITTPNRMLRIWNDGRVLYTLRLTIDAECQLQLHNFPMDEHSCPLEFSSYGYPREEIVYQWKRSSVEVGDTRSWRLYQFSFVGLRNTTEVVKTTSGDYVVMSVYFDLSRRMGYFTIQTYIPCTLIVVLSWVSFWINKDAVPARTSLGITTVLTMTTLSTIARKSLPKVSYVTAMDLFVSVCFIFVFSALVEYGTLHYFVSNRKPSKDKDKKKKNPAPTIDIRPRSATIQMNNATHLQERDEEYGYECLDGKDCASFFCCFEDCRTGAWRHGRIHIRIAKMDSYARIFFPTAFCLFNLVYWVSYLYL", "experiment": "In vivo brain receptor occupancy assay ([3H]L-655,708 binding)", "description": "The occupancy of rat brain benzodiazepine binding sites by compound was measured by its ability to inhibit the in vivo binding of [^3H] L-655,708. This radioligand is selective for the benzodiazepine site of GABAA receptors containing an α5 subunit (Quirk et al. 2001, Journal of Neurochemistry, 77 445-51) and has been used previously to measure in vivo α5-GABAAR occupancy (Atack et al. 2005, Neuropharmacology, 49 220-229).\n[…] To block all benzodiazepine binding sites and therefore define the level of non-specific binding of [^3H] […]\nAnimals were then killed by stunning and decapitation, the whole brain was rapidly removed, the cerebellum and brainstem were discarded, leaving the forebrain which was weighed and homogenised in 10 volumes of ice-cold homogenising buffer (10 mM potassium phosphate buffer containing 100 mM KCl, pH 7.4). Aliquots of homogenate (500 μL) were then added directly to scintillation vials (total radioactivity) or filtered and washed with 5 ml Tris-HCL buffer (50 mM, pH 7.4) over Whatman glass microfiber GF/B filters. Washed filters were then placed in scintillation vials (three filters per vial) and scintillation fluid was added to all vials, which were then counted on a Perkin-Elmer Tricarb 2900TR scintillation counter (membrane-bound radioactivity). […]"}, "[2]": {"molecular_target": "T2, human α5β3γ2 GABAARs in mouse L(tk−) cells (Homo sapiens, UniProt P18507+P31644)", "T2 construct": "expressed in transfected cells; host or cells: mouse L(tk−) cells, dexamethasone-inducible vector pMSGneo", "T2 sequence (P31644 32-462)": "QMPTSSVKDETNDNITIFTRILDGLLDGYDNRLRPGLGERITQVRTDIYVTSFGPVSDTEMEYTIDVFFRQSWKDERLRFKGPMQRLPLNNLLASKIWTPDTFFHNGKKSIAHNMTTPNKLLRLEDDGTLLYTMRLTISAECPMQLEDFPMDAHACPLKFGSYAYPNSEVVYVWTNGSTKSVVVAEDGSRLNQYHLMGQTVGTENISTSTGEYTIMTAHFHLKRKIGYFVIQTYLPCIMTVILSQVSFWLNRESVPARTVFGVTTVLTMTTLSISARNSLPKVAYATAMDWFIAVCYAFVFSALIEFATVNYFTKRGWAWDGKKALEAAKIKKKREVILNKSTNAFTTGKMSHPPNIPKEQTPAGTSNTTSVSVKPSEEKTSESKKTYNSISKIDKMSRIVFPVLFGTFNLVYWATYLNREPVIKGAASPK", "T2 sequence (P28472 26-473 partner)": "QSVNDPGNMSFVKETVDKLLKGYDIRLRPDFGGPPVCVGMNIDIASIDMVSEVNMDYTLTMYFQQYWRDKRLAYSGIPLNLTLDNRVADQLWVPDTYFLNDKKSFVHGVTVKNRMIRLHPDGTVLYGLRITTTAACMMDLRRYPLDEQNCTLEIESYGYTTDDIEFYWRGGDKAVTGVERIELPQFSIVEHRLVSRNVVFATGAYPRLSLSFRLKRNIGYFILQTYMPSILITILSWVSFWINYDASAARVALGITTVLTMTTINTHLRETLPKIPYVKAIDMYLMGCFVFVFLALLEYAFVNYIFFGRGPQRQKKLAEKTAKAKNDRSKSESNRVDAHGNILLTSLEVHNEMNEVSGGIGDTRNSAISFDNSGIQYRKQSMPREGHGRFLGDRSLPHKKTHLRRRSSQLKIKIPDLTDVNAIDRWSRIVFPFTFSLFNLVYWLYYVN", "T2 sequence (P18507 40-475)": "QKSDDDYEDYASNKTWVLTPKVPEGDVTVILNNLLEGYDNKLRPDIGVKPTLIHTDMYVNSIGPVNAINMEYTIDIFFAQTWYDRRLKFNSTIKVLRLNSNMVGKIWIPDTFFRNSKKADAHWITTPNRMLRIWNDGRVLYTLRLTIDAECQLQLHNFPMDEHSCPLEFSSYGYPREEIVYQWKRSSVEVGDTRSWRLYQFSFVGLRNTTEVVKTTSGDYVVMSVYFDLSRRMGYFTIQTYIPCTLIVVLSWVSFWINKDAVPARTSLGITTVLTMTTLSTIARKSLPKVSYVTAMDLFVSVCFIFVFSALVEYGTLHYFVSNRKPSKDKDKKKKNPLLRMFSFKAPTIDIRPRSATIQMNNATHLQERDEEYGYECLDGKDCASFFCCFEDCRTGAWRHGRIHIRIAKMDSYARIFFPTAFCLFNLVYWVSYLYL", "experiment": "In vitro electrophysiological recording assay (α5-GABAAR relative efficacy), QPatch", "type": "cell-based", "in_short": "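Whole-cell QPatch recordings at 20-22° C, −65 mV holding, in dexamethasone-induced (1 μM, 24 h) L(tk−) cells. Compound pre-applied ≥1 min, then co-applied with GABA EC10-20; percentage change in leak-corrected peak current, taken at ≥100× Ki, normalised to DMCM efficacy; 0.1% DMSO final.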"}},
  "data": [
    {"compound": "COc1nc(-n2ccnc2)ccc1NC(=O)c1c(-c2ccccc2)noc1C", "note": "[Example 1, N-(6-Imidazol-1-yl-2-methoxy-3-pyridyl)-5-methyl-3-phenyl-isoxazole-4-carboxamide]", "values": [
      {"measurement": "occupancy of rat brain α5-GABAARs, dependence on dose", "setting": "[1]; 3 to 30 mg/kg p.o., FIG. 3", "result": "dose-dependent"},
      {"measurement": "receptor occupancy at 10 mg/kg", "setting": "[1]; po, 10 mg/kg p.o., inhibition of in vivo [3H]L655,708 binding, FIG. 3, read-out: occupancy of rat brain α5 GABAA receptors", "result": 77, "unit": "%"},
      {"measurement": "GABA-elicited whole-cell current in the presence of compound", "setting": "[2]; 1 μM, QPatch, same cell before and after addition, FIG. 1", "result": "smaller current"},
      {"measurement": "α5-GABAAR Relative Efficacy (to DMCM), Qpatch", "setting": "[2]; Conc 1 μM, GABA EC10-20", "result": "−0.91"}
    ]}
  ]
}
